PubChem BioAssay (NCI)
Several values for one entry are separate records, joined by “and”; a condition that tells them apart may be missing. Equal values may be shown once.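 Where inhibition never reached the appropriate level, the endpoint shown equals the highest concentration tested. Otherwise, values were interpolated linearly from a five-concentration, 48-hour dose response in 96-well plates. GI50 marks 50% less growth. TGI: concentration producing complete growth inhibition.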

What was measured:
Test in all cases: inhibition of tumour cell growth, NCI panel, 48 h
[1] = tested on: T-47D breast
[2] = tested on: NCI-H226 lung
[3] = tested on: RXF 393 renal
[4] = tested on: SF-539 CNS
[5] = tested on: M14 melanoma
[6] = tested on: SW-620 colon
[7] = tested on: UO-31 renal
[8] = tested on: SR leukemia
[9] = tested on: MDA-N
[10] = tested on: HCT-116 colon
[11] = tested on: SN12C renal
[12] = tested on: IGROV1 ovarian
[13] = tested on: MDA-MB-435
[14] = tested on: K-562 leukemia
[15] = tested on: SF-295 CNS
[16] = tested on: DU-145 prostate
[17] = tested on: SNB-75 CNS
[18] = tested on: NCI-H522 lung
[19] = tested on: NCI-H23 lung
[20] = tested on: HT29 colon
[21] = tested on: TK-10 renal
[22] = tested on: UACC-62 melanoma
[23] = tested on: SF-268 CNS
[24] = tested on: MALME-3M melanoma
[25] = tested on: SK-MEL-5 melanoma
[26] = tested on: HOP-62 NSCLC
[27] = tested on: OVCAR-3 ovarian
[28] = tested on: SK-MEL-28 melanoma
[29] = tested on: NCI-H460 lung
[30] = tested on: OVCAR-8 ovarian
[31] = tested on: BT-549 breast
[32] = tested on: KM12 colon
[33] = tested on: RPMI-8226 leukemia
[34] = tested on: HCT-15 colon
[35] = tested on: HS 578T breast
[36] = tested on: SNB-19 CNS
[37] = tested on: UACC-257 melanoma
[38] = tested on: COLO 205 colon
[39] = tested on: PC-3 prostate
[40] = tested on: OVCAR-4 ovarian
[41] = tested on: CAKI-1 renal
[42] = tested on: SK-OV-3 ovarian
[43] = tested on: 786-0 renal
[44] = tested on: HOP-92 NSCLC
[45] = tested on: CCRF-CEM leukemia
[46] = tested on: HL-60(TB) leukemia
[47] = tested on: OVCAR-5 ovarian
[48] = tested on: A498 renal
[49] = tested on: EKVX NSCLC
[50] = tested on: U251 CNS
[51] = tested on: ACHN renal
[52] = tested on: MCF7 breast
[53] = tested on: MOLT-4 leukemia
[54] = tested on: A549 NSCLC
[55] = tested on: NCI/ADR-RES ovarian
[56] = tested on: MDA-MB-231 breast
[57] = tested on: SK-MEL-2 melanoma
[58] = tested on: HCC-2998 colon
[59] = tested on: LOX IMVI melanoma

## Clc1ccccc1C(c1ccccc1)(c1ccccc1)n1ccnc1
[1]
  GI50: 2.3 µM
  TGI: 14.5 µM and 30.4 µM
[2]
  GI50: 3.13 µM
  TGI: 17.7 µM
[3]
  GI50: 2.89 µM
  TGI: 9.28 µM and 42.1 µM
[4]
  GI50: 3.22 µM
  TGI: 11.1 µM
[5]
  GI50: 2.23 µM
  TGI: 5.46 µM and 29.8 µM
[6]
  GI50: 3.28 µM
  TGI: 13.3 µM and 40.1 µM
[7]
  GI50: 1.45 µM
  TGI: 9 µM and 19.8 µM
[8]
  GI50: 1.86 µM
  TGI: 6.93 µM
[9]
  TGI: 32.1 µM
[10]
  GI50: 1.44 µM
  TGI: 3.35 µM and 23 µM
[11]
  GI50: 2.63 µM
  TGI: 13.3 µM
[12]
  GI50: 3.35 µM
  TGI: 18.7 µM and 22.9 µM
[13]
  GI50: 2.4 µM
  TGI: 10.1 µM and 47.4 µM
[14]
  TGI: > 42.1 µM
[15]
  GI50: 1.94 µM
  TGI: 9.67 µM and 23.7 µM
[16]
  GI50: 4.87 µM
  TGI: 17.2 µM and 39.6 µM
[17]
  GI50: 2.14 µM
  TGI: 8.72 µM and 35.5 µM
[18]
  GI50: 2.66 µM
  TGI: 8.89 µM and 18.9 µM
[19]
  GI50: 2.88 µM
  TGI: 13.1 µM and 26.3 µM
[20]
  GI50: 2.24 µM
  TGI: 7.1 µM and 28 µM
[21]
  GI50: 3.88 µM
  TGI: 13.5 µM and 30.9 µM
[22]
  GI50: 1.44 µM
  TGI: 6.68 µM and 27.9 µM
[23]
  GI50: 3.92 µM
  TGI: 18.8 µM and 35.7 µM
[24]
  GI50: 1.74 µM
  TGI: 7.24 µM and 16.9 µM
[25]
  GI50: 2.61 µM
  TGI: 10.4 µM and 22.3 µM
[26]
  GI50: 2.99 µM
  TGI: 12.5 µM and 26.6 µM
[27]
  GI50: 1.78 µM
  TGI: 4.41 µM and 17.6 µM
[28]
  GI50: 3.86 µM
  TGI: 15.6 µM and 36.1 µM
[29]
  GI50: 2.9 µM
  TGI: 9.53 µM and 29.8 µM
[30]
  GI50: 2.69 µM
  TGI: 20 µM and 26.3 µM
[31]
  GI50: 2.54 µM
  TGI: 6.87 µM and 20.6 µM
[32]
  GI50: 2.23 µM
  TGI: 6.25 µM and 36.8 µM
[33]
  TGI: > 62.7 µM
[34]
  GI50: 2.58 µM
  TGI: 12.5 µM and 22.7 µM
[35]
  GI50: 3.45 µM
  TGI: 19.7 µM and 35.2 µM
[36]
  GI50: 3.14 µM
  TGI: 17.7 µM and 32.3 µM
[37]
  GI50: 3.43 µM
  TGI: 14.2 µM and 25.2 µM
[38]
  GI50: 1.76 µM
  TGI: 3.28 µM and 29 µM
[39]
  GI50: 1.67 µM
  TGI: 12.4 µM and 20.2 µM
[40]
  GI50: 2.95 µM
  TGI: 15.5 µM and 41.3 µM
[41]
  GI50: 2.34 µM
  TGI: 15.3 µM and 50.5 µM
[42]
  GI50: 3.71 µM
  TGI: 13.7 µM and 29.2 µM
[43]
  GI50: 3.05 µM
  TGI: 10.6 µM and 43 µM
[44]
  GI50: 1.57 µM
  TGI: 4.3 µM and 37.9 µM
[45]
  TGI: 31.4 µM
[46]
  GI50: 1.72 µM
  TGI: 5.21 µM
[47]
  GI50: 4.05 µM
  TGI: 15.5 µM and 29.8 µM
[48]
  GI50: 2.15 µM
  TGI: 6.02 µM and 43.8 µM
[49]
  GI50: 2.41 µM
  TGI: 13.7 µM and 23.7 µM
[50]
  GI50: 2.48 µM
  TGI: 11.8 µM and 49.8 µM
[51]
  GI50: 2.87 µM
  TGI: 13.1 µM and 25.6 µM
[52]
  GI50: 2.89 µM
  TGI: 11.8 µM and 24.7 µM
[53]
  GI50: 1.96 µM
  TGI: 6.87 µM and 57.7 µM
[54]
  GI50: 2.43 µM
  TGI: 13.3 µM and 29.3 µM
[55]
  GI50: 2.88 µM
  TGI: 13.3 µM and 28.2 µM
[56]
  GI50: 2.13 µM
  TGI: 6.72 µM and 38.6 µM
[57]
  GI50: 2.66 µM
  TGI: 7.22 µM and 29.3 µM
[58]
  GI50: 3.3 µM
  TGI: 12.7 µM and 31 µM
[59]
  GI50: 1.69 µM
  TGI: 4.66 µM
